One test has as its target T1, PPARδ (Homo sapiens, UniProt Q03181).
T1 construct: made in house; host or cells: HEK293 (cell lysates)
T1 sequence (Q03181 1-441): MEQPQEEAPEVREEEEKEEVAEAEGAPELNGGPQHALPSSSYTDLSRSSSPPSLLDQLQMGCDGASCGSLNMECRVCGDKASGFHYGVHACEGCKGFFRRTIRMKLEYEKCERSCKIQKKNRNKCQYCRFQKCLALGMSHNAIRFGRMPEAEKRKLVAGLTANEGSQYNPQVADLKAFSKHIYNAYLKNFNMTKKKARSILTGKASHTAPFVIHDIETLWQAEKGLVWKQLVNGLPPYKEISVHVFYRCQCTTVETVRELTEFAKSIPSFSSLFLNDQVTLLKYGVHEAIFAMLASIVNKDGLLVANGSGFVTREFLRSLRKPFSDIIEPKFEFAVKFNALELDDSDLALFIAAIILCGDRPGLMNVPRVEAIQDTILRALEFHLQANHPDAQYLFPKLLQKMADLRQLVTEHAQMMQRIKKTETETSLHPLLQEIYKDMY
T1 sequence (P19793 1-462 partner): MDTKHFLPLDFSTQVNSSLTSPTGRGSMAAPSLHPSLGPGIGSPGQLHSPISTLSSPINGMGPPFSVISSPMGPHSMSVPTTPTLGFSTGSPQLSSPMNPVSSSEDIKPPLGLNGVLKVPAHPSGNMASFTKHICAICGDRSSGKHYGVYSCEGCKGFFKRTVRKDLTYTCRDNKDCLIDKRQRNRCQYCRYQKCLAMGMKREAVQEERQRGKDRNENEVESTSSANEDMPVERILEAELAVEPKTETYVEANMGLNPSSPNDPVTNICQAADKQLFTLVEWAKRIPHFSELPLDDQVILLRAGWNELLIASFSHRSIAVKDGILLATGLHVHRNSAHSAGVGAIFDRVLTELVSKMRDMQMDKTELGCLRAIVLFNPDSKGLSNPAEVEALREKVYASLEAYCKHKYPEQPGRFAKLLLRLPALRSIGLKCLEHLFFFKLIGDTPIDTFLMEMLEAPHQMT
The test is described as follows: PPARδ binding assay (SPA). On the procedure: Because GPR40 is known to be activated by ligands to PPARγ, the exemplified compound is examined in PPARα, PPARδ, and PPARγ binding and functional assays to determine the selectivity of the compound of Example 1 for GPR40.
Binding affinities of the compound for the PPAR α, δ, and γ receptors are assessed using Scintillation Proximity Assay (SPA) technology. Biotinylated oligonucleotide Direct Repeat 2 (DR2) is used for binding the receptors to Yttrium silicate streptavidin-coated SPA beads. PPAR α, δ, γ and retinoid X receptor (RXR) α are over expressed in HEK293 cells, and cell lysates containing the specific receptors are used in the individual assays. The DR2 is attached to the SPA beads over a 30 minute period in a binding buffer containing 10 mM HEPES pH 7.8, 80 mM KCl, 0.5 mM MgCl2, 1 mM DTT, 0.5% 3[(3-cholamidopropyl)dimethylammonio]-propanesulfonic acid (CHAPS), and 4.4% bovine serum. […] Non-specific binding is determined in the presence of 10,000 nM of the unlabeled PPAR α/δ dual agonist reference compound for the alpha and delta receptor assays and the PPARγ agonist reference compound for the gamma receptor assay. The binding reaction (100 μl per well in a 96 well [Costar 3632] plate) is incubated for 10 h and counted disintegration per minutes (dpm) on a Wallac Microbeta. Receptor binding affinity (IC50) for the compound is determined by fitting an 11 point concentration-response curve with a 4-parameter logistic equation. Ki is determined from the IC50 using the Cheng-Prussoff equation and Kd determined by saturation binding. […]

For test [1], the system named is primary rodent pancreatic islets of Langerhans. The experiment in a line: GDIS assay in primary rodent pancreatic islets. Particulars: 3.0 uM with rat islets and 11.2 mM glucose; compared to 11.2 mM glucose; 90 min; P<0.05. Format: cell-based. An excerpt: Because activation of GPR40 is known to result in insulin secretion, which is dependent on high glucose concentrations, two separate assay systems (an insulinoma cell line and primary rodent islets) are developed to further characterize compounds that are known to increase intracellular calcium in the GPR40 primary assay discussed above.
GDIS assays using primary rodent pancreatic islets of Langerhans are also used to characterize the exemplified compound. Pancreatic islets are isolated from male SD (Sprague Dawley) rats by collagenase digestion and Histopaque density gradient separation. The islets are cultured overnight in RPMI-1640 medium with GlutaMAXn (stabilized, dipeptide form of L-glutamine (Invitrogen catalog #61870-010)) to facilitate recovery from the isolation process. Insulin secretion is determined by a 90 minute incubation in EBSS (Earle's Balances Salt Solution) buffer in a 48-well plate. Briefly, islets are first preincubated in EBSS with 2.8 mM glucose for 30 min, and are then transferred to a 48-well plate (four islets/well) containing 150 μl 2.8 mM glucose, and incubated with 150 μl of EBSS with 2.8 or 11.2 mM glucose in the presence or absence of test compound for 90 minutes. The buffer is removed from the wells at the end of the incubation, and assayed for insulin levels using the Rat Insulin ELISA kit (Mercodia). […]

A further test has as its target human GPR40 (Homo sapiens, UniProt O14842). Particulars: maximal response compared to the natural ligand, linoleic acid.

Chain of human GPR40 (O14842 whole entry): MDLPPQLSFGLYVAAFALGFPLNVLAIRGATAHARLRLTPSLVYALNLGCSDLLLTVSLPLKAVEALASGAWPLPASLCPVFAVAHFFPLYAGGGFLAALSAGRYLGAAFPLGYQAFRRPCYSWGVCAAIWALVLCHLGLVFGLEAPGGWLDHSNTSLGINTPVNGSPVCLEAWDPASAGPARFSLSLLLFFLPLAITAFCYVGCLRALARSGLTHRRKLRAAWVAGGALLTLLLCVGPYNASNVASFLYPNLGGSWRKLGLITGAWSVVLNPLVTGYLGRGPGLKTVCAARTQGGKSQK

On to `CC#C[C@@H](CC(=O)O)c1ccc(OCc2ccc(CN3CCCc4cccc(OC)c43)s2)cc1` [Example 1, (3S)-3-[4-[[5-[(8-Methoxy-3,4-dihydro-2H-quinolin-1-yl)methyl]-2-thienyl]methoxy]phenyl]hex-4-ynoic acid], for which the binding entry on PPARδ (concentrations up to 10 μM) is “no binding is detected”. The concentration for half-maximal inhibition (IC50) on PPARδ (tested up to 30 μM, read-out: relative IC50) was above 10 µM. Further, on PPARδ (with 10 μM concentrations of test compound), the PPAR binding values entry is listed as “greater than 1000 nM”. The compound further registered an increase in insulin in test [1] of 2.1 fold. Besides, on human GPR40, the Percent efficacy was 84+/−24%.

In general, IC50 refers to the midpoint of a concentration-inhibition curve.
